According to PMC10002493, “Direct Oral FXa Inhibitors Binding to Human Serum Albumin: Spectroscopic, Calorimetric, and Computational Studies” (International Journal of Molecular Sciences, 2023):
Structures can show the parent of a compound that is named as a salt. Where two headings read alike, the source gives them in different places.

Experiments:
[1] = tested on: T1, human serum albumin (HSA); assay: Steady-state fluorescence quenching of HSA (Stern–Volmer analysis); assay type: binding; settings: for Ksv (Stern–Volmer constant): 0.10 M tris-HCl pH 7.4, 0.10 M NaCl, 2 µM HSA, 0–20 µM drug, λex 295 nm; for Ksv of salt compared to the neutral compound: 298 K and 310 K
T1 construct: purchased Sigma-Aldrich
Description: The fluorescence intrinsic to proteins is attributed to aromatic amino acid residues, such as tryptophan (Trp), phenylalanine (Phe), and tyrosine (Tyr). The fluorescence of HSA in particular can be traced back to its tyrosine and tryptophan residues, therefore the experiments were performed with an excitation wavelength of 295 nm, because tryptophan absorbs light in this range [33]. HSA has a single tryptophan residue (Trp-214) close to the Sudlow site I (subdomain IIA), responsible for the main fluorescence emission of the protein [34, 35]. Binding to this site induces fluorescence quenching, which is a very helpful tool to evaluate different drugs’ interactions with HSA.
Sample measurements were recorded in 0.10 M tris-HCl buffer pH 7.4 with 0.10 M NaCl, 2 µM HSA, 0–20 µM FXa inhibitors respectively (λex = 295 nm).
The quenching process of HSA can be described as static or dynamic. Static quenching occurs when HSA forms complexes with anticoagulants in the ground state, whereas dynamic quenching occurs via diffusion-controlled encounters in the excited state. Consequently, temperature affects the quenching processes in a different manner. The Stern–Volmer constant has a temperature dependence: Ksv in a dynamic process increases with temperature due to the necessity of successful diffusion and collision of the FXa inhibitors with the tryptophan residues of HSA. In a static quenching process, Ksv decreases with rising temperature, due to the diminished stability of the complex in the ground state. The quenching process of HSA can be analyzed by the Stern–Volmer equation, which provides helpful information regarding the binding process. Table 1 and Figure 4 summarize the Ksv of the HSA-FXa inhibitor complexes at 298 K and 310 K respectively. The Ksv of betrixaban and edoxaban were compared with their respective salts, betrixaban maleate (BEM) and edoxaban tosylate hydrate (EDT).
Fluorescence emission spectra were collected on a Perkin Elmer LS55 fluorimeter, using 5 nm bandwidths for excitation and emission. Samples were excited at 295 nm and 298 K or 310 K, respectively. Subsequently, HSA fluorescence was measured at 350 nm decreases, in the presence of different anticoagulants, corrected by the inner-filter effect using Equation (1) where Icorr and Iobs correspond to fluorescence corrected and obtained intensities, and Aex and Aem correspond to the absorbance at the excitation and emission wavelengths. The quenching data were evaluated using the Stern–Volmer Equation (2), where I0 and I are the fluorescence intensities of the HSA in the absence or presence of anticoagulants (Q, quenchers), and Ksv is the Stern–Volmer constant:(1) Icorr=Iobs×10^Aex+Aem/2 (2) I0/I=1+KsvQ

fatty-acid-free HSA = target: T2, fatty-acid-free HSA; assay: Isothermal titration calorimetry (ITC) of anticoagulants with HSA; design: species or system human; settings: phosphate buffer 10 mM, pH 7.4, 298 K, one-site binding model
T2 construct: purchased Sigma-Aldrich
Description: (§1) ITC analyses were performed in phosphate buffer, 10 mM, pH = 7.4. […] Lower ionization enthalpy reduces heat signals associated with proton-exchange reactions between the buffer and the ligand/host system during complex formation. […] A plot of the heat released per mole of HSA as a function of the molar ratio of the solution ([HSA]/[anticoagulant]) is shown at the foot of each figure. […] Control titrations were performed (drug over buffer) and subtracted from each analysis before the fitting.
(§2) ITC data were obtained using a MicroCal PEAQ-ITC instrument (Malvern Panalytical). […] Working solutions were prepared using aliquots of the stock solutions of anticoagulants diluted in phosphate buffer, 10 mM, pH = 7.4. […] The first injection was 0.40 μL, followed by 12 injections of 3.0 μL. Reference power was set to 5 μcal/s, 500 rpm stirring speed, initial delay of 60 s, and injection spacing of 150 s. Titration curves were drawn in duplicate and the thermodynamic parameters were fitted to the one-site binding model using Microcal PEAQ-ITC analysis software. Controls were measured by recording the heat effects of the titrant over plain buffer and were subtracted from thermograms before fitting analysis. All the measurements were performed in duplicate.

HSA fatty acid-free = tested on: HSA fatty acid-free; design: method as in PMID 29680174; settings: Tris–HCl (0.10 M NaCl) DMSO 2%, FS, cited from earlier work
HSA: heme-Fe(III) = tested on: HSA: heme-Fe(III); design: method as in PMID 32279215; settings: pH 7.3, 20 °C, Phosphate 2.0 × 10^−2 M DMSO 10%, binding site IB, UV; cited from earlier work
[2] = Aqueous solubility observed in preparing ITC solutions; assay type: physicochemical; settings: also with solvent mixtures that included ethanol and DMSO, prevented ITC data
Description: as §1, §2

[3] = reversible protein–drug complexes; cited from earlier work
BSA = settings: binding site IIA, FS, cited from earlier work
[4] = design: method as in PMID 32279215; settings: rivaroxaban-treated patients; cited from earlier work

Compound	KITC binding constant (fatty-acid-free HSA)	aqueous solubility [2]	aqueous solubility ([2]; listed as edoxaban)	aqueous solubility ([2]; listed as rivaroxaban)	Ksv (Stern–Volmer constant) ([1]; 298 K)	Ksv (Stern–Volmer constant) ([1]; 310 K)	K (HSA fatty acid-free; pH 7.4, 28 °C, binding site IIA)	K (HSA fatty acid-free; pH 7.4, 37 °C, binding site IB)	K (HSA fatty acid-free; pH 7.4, 45 °C, binding site IB)	K (HSA: heme-Fe(III))	Ksv of salt compared to the neutral compound [1]	binding to plasma proteins [3]	K (BSA; pH 7.4, 25 °C, Phosphate DMSO 0.3%)	K (BSA; pH 7.4, 30 °C, Phosphate DMSO 0.3%)	K (BSA; pH 7.4, 35 °C, Phosphate buffer DMSO 0.3%)	adjusted risk of bleeding per 1.0 g/dL incremental decrease in albumin [4]
COc1ccc(-n2nc(C(N)=O)c3c2C(=O)N(c2ccc(N4CCCCC4=O)cc2)CC3)cc1 [AP, apixaban]	5560 M⁻¹	–	–	–	3.36 ± 0.03 ×10^4 M^−1	2.79 ± 0.02 ×10^4 M^−1	3410 M⁻¹	2460 M⁻¹	1670 M⁻¹	2.78e+06 M⁻¹	–	–	–	–	–	–
CN1CCc2nc(C(=O)N[C@@H]3C[C@@H](C(=O)N(C)C)CC[C@@H]3NC(=O)C(=O)Nc3ccc(Cl)cn3)sc2C1 [ED, edoxaban]	–	poor aqueous solubility	low water solubility	–	1.60 ± 0.04 ×10^4 M^−1	1.28 ± 0.05 ×10^4 M^−1	–	–	–	769000 M⁻¹	–	55%	–	–	–	–
CN1CCc2nc(C(=O)N[C@@H]3C[C@@H](C(=O)N(C)C)CC[C@@H]3NC(=O)C(=O)Nc3ccc(Cl)cn3)sc2C1.Cc1ccc(S(=O)(=O)O)cc1.O [EDT, Edoxaban tosylate hydrate]	–	poor aqueous solubility	–	–	1.79±0.03 ×10^4 M^−1	1.27±0.02 ×10^4 M^−1	–	–	–	–	no significant differences	–	–	–	–	–
O=C(NC[C@H]1CN(c2ccc(N3CCOCC3=O)cc2)C(=O)O1)c1ccc(Cl)s1 [RV, rivaroxaban]	–	poor aqueous solubility	–	low water solubility	1.56 ± 0.03 ×10^4 M^−1	0.98 ± 0.04 ×10^4 M^−1	–	–	–	455000 M⁻¹	–	95%	132000 M⁻¹	18200 M⁻¹	4370 M⁻¹	4.4 fold

More lines, main results first:

KITC binding constant (fatty-acid-free HSA)	aqueous solubility [2]	aqueous solubility ([2]; listed as edoxaban)	aqueous solubility ([2]; listed as rivaroxaban)	Compound	Ksv (Stern–Volmer constant) ([1]; 298 K)	Ksv (Stern–Volmer constant) ([1]; 310 K)	K (HSA fatty acid-free; pH 7.4, 28 °C, binding site IIA)	K (HSA fatty acid-free; pH 7.4, 37 °C, binding site IB)	K (HSA fatty acid-free; pH 7.4, 45 °C, binding site IB)	K (HSA: heme-Fe(III))	Ksv of salt compared to the neutral compound [1]	binding to plasma proteins [3]	K (BSA; pH 7.4, 25 °C, Phosphate DMSO 0.3%)	K (BSA; pH 7.4, 30 °C, Phosphate DMSO 0.3%)	K (BSA; pH 7.4, 35 °C, Phosphate buffer DMSO 0.3%)	adjusted risk of bleeding per 1.0 g/dL incremental decrease in albumin [4]
–	poor aqueous solubility	–	–	COc1ccc(NC(=O)c2ccc(C(=N)N(C)C)cc2)c(C(=O)Nc2ccc(Cl)cn2)c1 [BE, betrixaban]	1.86 ± 0.03 ×10^4 M^−1	1.44 ± 0.04 ×10^4 M^−1	–	–	–	1.61e+06 M⁻¹	–	–	–	–	–	–
1600 M⁻¹	–	–	–	COc1ccc(NC(=O)c2ccc(C(=N)N(C)C)cc2)c(C(=O)Nc2ccc(Cl)cn2)c1 [BEM, betrixaban maleate]	1.59±0.05 ×10^4 M^−1	1.36±0.03 ×10^4 M^−1	–	–	–	–	no significant differences	–	–	–	–	–
